Test results reported in US20120189546A1, “Radiolabelling Method Using Cycloalkyl Groups” (BAYER PHARMA AKTIENGESELLSCHAFT, priority 2009, published 2012).
Where “and” joins values, the source holds several entries; their conditions need not be identical. Equal values may be shown once.

Legend:
[1] = tested on: A549 human lung carcinoma cell line; assay: [H-3]-D-Tyrosine uptake competition in A549 cells; format: cell-based; conditions: 30 min, 100 μM competitor, 2.8% without competitor
Experimental: Cells were seeded 1-2 days prior to the assay and grown until sub-confluency in 48 well plates. Prior to the assay the cell culture medium was removed and the cells were washed with phosphate buffered saline (PBS)+0.1% Bovine serum albumin (BSA). After adding the assay buffer (PBS+0.1% BSA), 37 KBq of the radiotracer [H-3]-D-Tyrosine was added immediately and was incubated with cells at 37° C. in a humidified atmosphere containing 5% CO2 for 30 min. For investigation of transporter characteristics and competitions, the cells were coincubated with 100 μM F-DOPA or compound 29 (FCBT) for 30 min to monitor radioactivity uptake. To stop tracer uptake the incubation buffer was removed after 30 min, the cells were washed and lysed with 1 M sodium hydroxide. Subsequently the amount of radioactivity in the cell lysate was determined in a scintillation counter.
(§1) Aliquots of the applied tracer amount were measured in a gamma counter to determine the total amount in counts per minute (cpm) together with the samples to correct for tracer decay. Cell numbers per well were determined after detaching cells by trypsinization in 3 wells prior to start of the assay and counted in cell chamber under a microscope. The mean of cells was calculated. To compare tracer uptake between different studies the cell number was normalized to 100,000 cells.

[2] = molecular target: T1, LAT1 (Homo sapiens, UniProt Q01650); assay: [H-3]-D-Tyrosine efflux experiment in A549 cells (LAT1 substrate test); format: cell-based; conditions: A549 cells preloaded with [H-3]-D-Tyrosine, 100 μM cold compound, 0.7% without compound
T1 construct: endogenous in cells; host or cells: A549 human lung carcinoma cells
T1 sequence (Q01650 whole entry): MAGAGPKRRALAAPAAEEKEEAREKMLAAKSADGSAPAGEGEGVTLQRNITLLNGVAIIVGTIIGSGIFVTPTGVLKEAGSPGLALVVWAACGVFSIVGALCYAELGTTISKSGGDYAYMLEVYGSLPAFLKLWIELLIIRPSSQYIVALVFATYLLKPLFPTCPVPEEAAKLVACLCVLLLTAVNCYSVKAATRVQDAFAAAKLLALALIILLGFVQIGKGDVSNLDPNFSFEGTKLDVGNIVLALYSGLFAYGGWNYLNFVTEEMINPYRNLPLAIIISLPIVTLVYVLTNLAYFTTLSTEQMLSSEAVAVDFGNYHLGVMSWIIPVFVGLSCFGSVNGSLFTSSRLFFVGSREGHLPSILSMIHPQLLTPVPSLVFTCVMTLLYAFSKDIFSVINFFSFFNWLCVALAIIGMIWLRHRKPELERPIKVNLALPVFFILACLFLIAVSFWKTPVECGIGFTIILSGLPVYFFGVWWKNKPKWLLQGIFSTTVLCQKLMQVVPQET
T1 sequence (P08195 102-630 partner): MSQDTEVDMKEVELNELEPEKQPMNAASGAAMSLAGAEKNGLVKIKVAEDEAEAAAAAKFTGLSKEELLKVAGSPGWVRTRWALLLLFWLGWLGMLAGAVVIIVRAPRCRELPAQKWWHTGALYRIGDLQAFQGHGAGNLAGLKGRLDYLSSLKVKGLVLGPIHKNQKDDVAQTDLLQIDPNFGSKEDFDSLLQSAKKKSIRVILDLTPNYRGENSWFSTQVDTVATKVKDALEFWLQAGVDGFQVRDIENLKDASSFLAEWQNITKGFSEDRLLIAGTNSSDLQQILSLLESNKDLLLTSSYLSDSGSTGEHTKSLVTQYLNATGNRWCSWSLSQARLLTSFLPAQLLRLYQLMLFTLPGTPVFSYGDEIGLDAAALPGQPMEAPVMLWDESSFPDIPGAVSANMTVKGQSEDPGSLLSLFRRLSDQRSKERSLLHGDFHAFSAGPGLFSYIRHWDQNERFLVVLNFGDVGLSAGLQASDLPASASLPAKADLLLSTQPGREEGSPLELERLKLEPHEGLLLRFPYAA
Experimental: To study if the compounds are transported by LAT1, the cells were incubated with 37 kBq of the radiotracer [H-3]-D-Tyrosine and was incubated with cells at 37° C. in a humidified atmosphere containing 5% CO2 for 30 min. Then the cells were washed with PBS and fresh assay buffer was added to the cells containing 100 μM concentration of cold compound and the cells were incubated for another 30 min. To stop tracer efflux the incubation buffer was removed after 30 min, the cells were washed and lysed with 1 M sodium hydroxide. Subsequently the amount of radioactivity in the cell lysate was determined in a scintillation counter.
as §1

[3] = tested on: rat hepatocytes; assay: In vitro metabolic stability in rat hepatocytes with calculation of hepatic in vivo blood clearance; format: in vitro ADME; conditions: male Wistar rat hepatocytes, 0.5x10^6 cells/ml, 1 μM test compound
Experimental: Hepatocytes from Han Wistar rats were isolated via a 2-step perfusion method. After perfusion, the liver was carefully removed from the rat: the liver capsule was opened and the hepatocytes were gently shaked out into a Petri dish with ice-cold WME. The resulting cell suspension was filtered through sterile gaze in 50 mL falcon tubes and centrifuged at 50×g for 3 min at room temperature. The cell pellet was resuspended in 30 mL WME and centrifuged through a Percoll® gradient for 2 times at 100×g. The hepatocytes were washed again with Williams' medium E (WME) and resuspended in medium containing 5% FCS. Cell viability was determined by trypan blue exclusion.
For the metabolic stability assay liver cells were distributed in WME containing 5% FCS to glas vials at a density of 0.5×10^6 vital cells/ml. The test compound was added to a final concentration of 1 μM. During incubation, the hepatocyte suspensions were continuously shaken and aliquots were taken at 2, 8, 16, 30, 45 and 60 min, to which equal volumes of cold methanol were immediately added. Samples were freezed at −20° C. overnight, subsequently centrifuged for 15 minutes at 3000 rpm and the supernatant was analyzed with an Agilent 1200 HPLC-system with LCMS/MS detection.
The half-life of a test compound was determined from the concentration-time plot. From the half-life the intrinsic clearances were calculated.

[4] = In vitro plasma stability, rat plasma; format: in vitro ADME; conditions: 0.3 μM
Experimental: (§2) This investigation determines the stability of test compound in plasma of different species. […] Samples were freezed at −20° C. overnight, subsequently centrifuged for 15 minutes at 3000 rpm and the supernatant was analyzed with an Agilent 1200 HPLC-system with LCMS/MS detection.
(§3) The stability of the test compound was quantified by comparison of the remaining amount at the different time points with the amount of the 0 min sample and is expressed in % of initial concentration.

[5] = In vitro plasma stability, human plasma; format: in vitro ADME; conditions: for MEAN [%] / % v. 0 h: human female plasma, 0.3 μM; for % v. 0 h: single values
Experimental: as §2, §3

[6] = tested on: A549 cells; assay: Cell uptake of [18F] compound 32b into A549 cells; format: cell-based, human
Experimental: We studied the uptake of the radiolabeled [^18F] compound 32b into A549 cells, 90000 A549 cells were seeded per cavity of a 48 well incubation plate (Becton Dickinson; Cat. 353078) and incubated for 2 days in RPMI 1640 with GlutaMAX (Invitrogen; Cat. 31331) medium supplemented with 10% FCS in an incubator (37° C., 5% CO2). Cells were washed once with PBS and then incubated for 10-30 minutes at 37° C. in PBS with 0.25 MBq of compound 32b ([^18F] labeled). After incubation, the cells were washed once with cold PBS, lysed with 1M NaOH, and finally lysates were measured in a gamma counter.

**Q.** With `N[C@@H](Cc1ccc(O[C@H]2C[C@@H](F)C2)cc1)C(=O)O.O=C(O)C(F)(F)F` [Compound 29, O-(cis-3-Fluorocyclobutyl)-L-tyrosine trifluoroacetate salt] as the compound, how does the “uptake of the applied [H-3]-D-Tyrosine with compound present in the assay buffer” value [1] read?
**A.** Its value is 1.1%.

**Q.** And the “amount of D-Tyrosine which remained in the cell after 30 min (efflux)” value [2]?
**A.** The value was 0.08 % applied dose/100.000 cells.

**Q.** And the “CL blood, ws, hep” value [3]?
**A.** Its value is 7.17 mL/min/kg.

**Q.** And the “MEAN [%]” value ([4]; male, rat, 2 min)?
**A.** The value was 100%.

**Q.** What about the “% v. 0 h” value ([4]; male, rat, 30 min) of the same compound?
**A.** Its value is 124%.

**Q.** What about the “MEAN [%]” value ([4]; male, rat, 30 min) of the same compound?
**A.** Its value is 124%.

**Q.** And the “MEAN [%]” value ([4]; male, rat, 60 min)?
**A.** The value was 133%.

**Q.** What about the “MEAN [%]” value ([5]; 2 min incubation) of the same compound?
**A.** The value was 100%.

**Q.** And the “% v. 0 h” value ([5]; 2 min incubation, trifluoroacetate salt)?
**A.** Its value is 96% and 104%.

**Q.** And the “MEAN [%]” value ([5]; 30 min incubation)?
**A.** Its value is 111%.

**Q.** And the “% v. 0 h” value ([5]; 30 min incubation, trifluoroacetate salt)?
**A.** The value was 121% and 100%.

**Q.** What about the “MEAN [%]” value ([5]; 60 min incubation) of the same compound?
**A.** The value was 104%.

**Q.** What about the “% v. 0 h” value ([5]; 60 min incubation, trifluoroacetate salt) of the same compound?
**A.** Its value is 104% and 105%.

**Q.** And the “degradation in human plasma after 60 min” value [5]?
**A.** Its value is “did not show any degradation”.

**Q.** Which maximum uptake ([6]; A549 cells, after 30 min, 0.25 MBq in PBS, 37° C.) does the source give for `N[C@@H](Cc1ccc(O[C@H]2C[C@@H]([18F])C2)cc1)C(=O)O` [Compound 32b, O-(cis-3-[^18F]Fluorocyclobutyl)-L-tyrosine] here?
**A.** The maximum uptake was 5.87 % applied dose/10^6 cells.

**Q.** And the “accumulation in tumor cells” value ([6]; all tested tumor cells)?
**A.** The value was “good accumulation”.

**Q.** With `N[C@@H](Cc1cc(O)c(O)cc1[18F])C(=O)O` [F-DOPA, reference compound] as the compound, how does the “uptake of the applied [H-3]-D-Tyrosine with compound present in the assay buffer” value [1] read?
**A.** Its value is 1.8%.

**Q.** And the “amount of D-Tyrosine which remained in the cell after 30 min (efflux)” value [2]?
**A.** The value was 0.11 % applied dose/100.000 cells.

**Q.** Which “MEAN [%]” value ([4]; rat male plasma, 1 min incubation) does the source give for `N[C@@H](Cc1ccc(OCCF)cc1)C(=O)O` [O-(2-[^19F]Fluoroethyl)-L-tyrosine, reference compound] here?
**A.** The value was 100%.

**Q.** What about the “% v. 0 h” value ([4]; rat male plasma, 1 min incubation, single values, listed as FET) of the same compound?
**A.** The value was 92% and 108%.

**Q.** What about the “MEAN [%]” value ([4]; rat male plasma, 30 min incubation) of the same compound?
**A.** The value was 109%.

**Q.** What about the “% v. 0 h” value ([4]; rat male plasma, 30 min incubation, single values, listed as FET) of the same compound?
**A.** The value was 110% and 109%.

**Q.** What about the “MEAN [%]” value ([4]; rat male plasma, 60 min incubation) of the same compound?
**A.** Its value is 119%.

**Q.** What about the “% v. 0 h” value ([4]; rat male plasma, 60 min incubation, single values, listed as FET) of the same compound?
**A.** Its value is 120% and 118%.

**Q.** What about the “MEAN [%]” value ([5]; 1 min incubation) of the same compound?
**A.** Its value is 100%.

**Q.** What about the “% v. 0 h” value ([5]; 1 min incubation, listed as FET) of the same compound?
**A.** Its value is 101% and 99%.

**Q.** What about the “MEAN [%]” value ([5]; 30 min incubation) of the same compound?
**A.** The value was 103%.

**Q.** What about the “% v. 0 h” value ([5]; 30 min incubation, listed as FET) of the same compound?
**A.** The value was 101% and 105%.

**Q.** What about the “MEAN [%]” value ([5]; 60 min incubation) of the same compound?
**A.** Its value is 50%.

**Q.** And the “% v. 0 h” value ([5]; 60 min incubation, listed as FET)?
**A.** The value was 52% and 49%.

**Q.** And the “degradation in human plasma after 60 min” value [5]?
**A.** The value was 50%.
